In one test the test system is SW-620 (ATCC: CCL-227). Briefly: Test of cancer cell growth inhibition (SRB), SW-620. The note with it: read-out: IC50 SW-620.
The subject of a further test is SK-Br3 (ATCC: HTB-30). Briefly: Test of cancer cell growth inhibition (SRB), SK-Br3. The conditions noted are these: read-out: IC50 SK-Br-3.
The next test concerns A431 (ATCC: CRL-1555). Briefly: Test of cancer cell growth inhibition (SRB), A431. The note with it: read-out: IC50 A431.
The mark [1] stands for this setting: SW-620 not having overexpressed EGFR and Erb-B2, 72 hours, SRB.
Setting [2] is: Erb-B2 overexpressed SK-Br3, 72 hours, SRB.
Setting [3] is: EGFR overexpressed A431, 72 hours, SRB.

This passage reports IC50 results from patent US8003658B2, “Quinazoline derivatives for inhibiting cancer cell growth and method for the preparation thereof” (Hanmi Holdings Co., Ltd., priority 2004, dated 2011).

Where two headings read alike, the source gives them in different places.

As for `COCC(=O)NCC(=O)Nc1ccc2ncnc(Nc3ccc(OCc4cccc(F)c4)c(Cl)c3)c2c1` [Example 2-4, N-({4-[3-chloro-4-(3-fluoro-benzyloxy)-phenylamino]-quinazolin-6-ylcarbamoyl}-methyl)-2-methoxy-acetamide], the IC50 with SW-620 (ATCC: CCL-227) (Homo sapiens, SW-620, 72 h) was above 10 µM; in the test on SK-Br3 (ATCC: HTB-30) (Homo sapiens, SK-BR-3, 72 h), 0.245 µM; in the test with A431 (ATCC: CRL-1555) (Homo sapiens, A-431, 72 h), 0.206 µM.

On to `C=CC(=O)NCC(=O)Nc1ccc2ncnc(Nc3ccc(OCc4cccc(F)c4)c(Cl)c3)c2c1` [Example 4, N-({4-[3-chloro-4-(3-fluoro-benzyloxy)-phenylamino]-quinazolin-6-ylcarbamoyl}-methyl)-acrylamide], for which the IC50 is above 10 µM in the test with SW-620 (ATCC: CCL-227) (Homo sapiens, SW-620, 72 h); 0.01 µM with SK-Br3 (ATCC: HTB-30) (Homo sapiens, SK-BR-3, 72 h); 0.179 µM in the test with A431 (ATCC: CRL-1555) (Homo sapiens, A-431, 72 h).

For the compound `COCC(=O)N[C@@H](Cc1ccccc1)C(=O)Nc1ccc2ncnc(Nc3ccc(OCc4cccc(F)c4)c(Cl)c3)c2c1` [Example 5-3, (2S)—N-{4-[3-chloro-4-(3-fluoro-benzyloxy)-phenylamino]-quinazolin-6-yl}-2-(2-methoxy-acetylamino)-3-phenyl-propionamide], the IC50 with SW-620 (ATCC: CCL-227) (Homo sapiens, SW-620, 72 h) is above 10 µM; in the test on SK-Br3 (ATCC: HTB-30) (Homo sapiens, SK-BR-3, 72 h) it was 0.106 µM; in the test on A431 (ATCC: CRL-1555) (Homo sapiens, A-431, 72 h) it was 0.315 µM.

`C=CC(=O)N[C@@H](CCSC)C(=O)Nc1ccc2ncnc(Nc3ccc(OCc4cccc(F)c4)c(Cl)c3)c2c1` [Example 9, (2S)-2-acryloylamino-N-{4-[3-chloro-4-(3-fluoro-benzyloxy)-phenylamino]-quinazolin-6-yl}-4-methanesulfanyl-butyramide]: the IC50 was above 10 µM in the test on SW-620 (ATCC: CCL-227) (setting [1]), 0.007 µM in the test with SK-Br3 (ATCC: HTB-30) (setting [2]) and 0.06 µM in the test with A431 (ATCC: CRL-1555) (setting [3]).

For `C=CC(=O)N1CCCC1C(=O)Nc1ccc2ncnc(Nc3ccc(OCc4cccc(F)c4)c(Cl)c3)c2c1` (stereo not drawn) [Example 18, 1-acryloyl-pyrrolidine-2-carboxylic acid {4-[3-chloro-4-(3-fluoro-benzyloxy)-phenylamino]-quinazolin-6-yl}-amide], the IC50 with SW-620 (ATCC: CCL-227) (Homo sapiens, SW-620, 72 h) is above 10 µM; in the test with SK-Br3 (ATCC: HTB-30) (Homo sapiens, SK-BR-3, 72 h) it was 0.29 µM; with A431 (ATCC: CRL-1555) (Homo sapiens, A-431, 72 h) it was 0.157 µM.

In the case of `CS(=O)(=O)CC(=O)NCCC(=O)Nc1ccc2ncnc(Nc3ccc(OCc4cccc(F)c4)c(Cl)c3)c2c1` [Example 21, N-{4-[3-chloro-4-(3-fluoro-benzyloxy)-phenylamino]-quinazolin-6-yl}-3-(2-methanesulfonyl-acetylamino)-propionamide], the IC50 with SW-620 (ATCC: CCL-227) (Homo sapiens, SW-620, 72 h) is above 10 µM; with SK-Br3 (ATCC: HTB-30) (Homo sapiens, SK-BR-3, 72 h) it was 0.016 µM; in the test on A431 (ATCC: CRL-1555) (Homo sapiens, A-431, 72 h), 0.455 µM.

Regarding `CC=CC=CC(=O)NCCC(=O)Nc1ccc2ncnc(Nc3ccc(OCc4cccc(F)c4)c(Cl)c3)c2c1` [Example 24, hexa-2,4-dienonylic acid (2-{4-[3-chloro-4-(3-fluoro-benzyloxy)-phenylamino]-quinazolin-6-ylcarbamoyl}-ethyl)-amide], the IC50 in the test with SW-620 (ATCC: CCL-227) (setting [1]) is above 10 µM; in the test on SK-Br3 (ATCC: HTB-30) (setting [2]), 0.105 µM; in the test on A431 (ATCC: CRL-1555) (setting [3]), 0.232 µM.

Take `O=C(CCNC(=O)C1=CCCC1)Nc1ccc2ncnc(Nc3ccc(OCc4cccc(F)c4)c(Cl)c3)c2c1` [Example 25, cyclopent-1-en carboxylic acid (2-{4-[3-chloro-4-(3-fluoro-benzyloxy)-phenylamino]-quinazolin-6-ylcarbamoyl}-ethyl)-amide]: the IC50 in the test on SW-620 (ATCC: CCL-227) (Homo sapiens, SW-620, 72 h) is above 10 µM; with SK-Br3 (ATCC: HTB-30) (Homo sapiens, SK-BR-3, 72 h), 0.133 µM; with A431 (ATCC: CRL-1555) (Homo sapiens, A-431, 72 h) it was 0.138 µM.

With `CC#CC(=O)NCCC(=O)Nc1ccc2ncnc(Nc3ccc(OCc4cccc(F)c4)c(Cl)c3)c2c1` [Example 27, but-2-ynoylic acid(2-{4-[3-chloro-4-(3-fluoro-benzyloxy)-phenylamino]-quinazolin-6-ylcarbamoyl}-ethyl)-amide], the IC50 in the test on SW-620 (ATCC: CCL-227) (setting [1]) was above 10 µM; in the test on SK-Br3 (ATCC: HTB-30) (setting [2]) it was 0.01 µM; with A431 (ATCC: CRL-1555) (setting [3]) it was 0.085 µM.

On to `CC=CC(=O)NCCC(=O)Nc1ccc2ncnc(Nc3ccc(OCc4cccc(F)c4)c(Cl)c3)c2c1` [Example 28, but-2-enonylic acid (2-{4-[3-chloro-4-(3-fluoro-benzyloxy)-phenylamino]-quinazolin-6-ylcarbamoyl}-ethyl)-amide], for which the IC50 in the test with SW-620 (ATCC: CCL-227) (setting [1]) was above 10 µM; with SK-Br3 (ATCC: HTB-30) (setting [2]), 0.065 µM; in the test on A431 (ATCC: CRL-1555) (setting [3]), 0.197 µM.

As for `C=CC(=O)N(CC)[C@@H](C)C(=O)Nc1cc2c(Nc3ccc(OCc4ccccn4)c(Cl)c3)ncnc2cc1OC` [Example 202, N-((1S)-1-{4-[3-chloro-4-(pyridin-2-ylmethoxy)-phenylamino]-7-methoxy-quinazolin-6-ylcarbamoyl}-ethyl)-N-ethyl-acrylamide], the IC50 came to 0.006 µM in the test on SK-Br3 (ATCC: HTB-30) (Homo sapiens, SK-BR-3, 72 h) and 0.105 µM with A431 (ATCC: CRL-1555) (Homo sapiens, A-431, 72 h).

Regarding `C=CC(=O)N1CCC[C@H]1C(=O)Nc1cc2c(Nc3ccc(OCCF)c(Cl)c3)ncnc2cc1OC` [Example 203, (2S)-1-acryloyl-pyrrolidine-2-carboxylic acid {4-[3-chloro-4-(2-fluoro-ethoxy)-phenylamino]-7-methoxy-quinazolin-6-yl}-amide], the IC50 in the test on SK-Br3 (ATCC: HTB-30) (Homo sapiens, SK-BR-3, 72 h) was 0.034 µM; in the test with A431 (ATCC: CRL-1555) (Homo sapiens, A-431, 72 h) it was 0.269 µM.

On to `C=CC(=O)N1CCC[C@H]1C(=O)Nc1cc2c(Nc3ccc(OCc4cccnc4)c(Cl)c3)ncnc2cc1OC` [Example 204, (2S)-1-acryloyl-pyrrolidine-2-carboxylic acid {4-[3-chloro-4-(pyridin-3-ylmethoxy)-phenylamino]-7-methoxy-quinazolin-6-yl}-amide], for which the IC50 with SK-Br3 (ATCC: HTB-30) (Homo sapiens, SK-BR-3, 72 h) was determined as 0.03 µM; in the test on A431 (ATCC: CRL-1555) (Homo sapiens, A-431, 72 h) it was 0.085 µM.

In the case of `C=CC(=O)NCC(F)C(=O)Nc1cc2c(Nc3ccc(OCc4ccccn4)c(Cl)c3)ncnc2cc1OC` (stereo not drawn) [Example 206, N-(2-{4-[3-chloro-4-(pyridin-2-ylmethoxy)-phenylamino]-7-methoxy-quinazolin-6-ylcarbamoyl}-2-fluoro-ethyl)-acrylamide], the IC50 in the test on SK-Br3 (ATCC: HTB-30) (Homo sapiens, SK-BR-3, 72 h) was 0.01 µM; with A431 (ATCC: CRL-1555) (Homo sapiens, A-431, 72 h), 0.017 µM.

Consider `C=CC(=O)N1CCC[C@H]1C(=O)Nc1cc2c(Nc3ccc(OCc4cccnc4)c(Cl)c3)ncnc2cc1OCCCN1CCOCC1` [Example 209, (2S)-1-acryloyl-pyrrolidine-2-carboxylic acid {4-[3-chloro-4-(pyridin-3-ylmethoxy)-phenylamino]-7-(3-morpholin-4-yl-propoxy)-quinazolin-6-yl}-amide], for which the half-maximal inhibitory concentration (IC50) amounted to 0.003 µM in the test with SK-Br3 (ATCC: HTB-30) (Homo sapiens, SK-BR-3, 72 h) and 0.044 µM in the test with A431 (ATCC: CRL-1555) (Homo sapiens, A-431, 72 h).

As to `C=CC(=O)N[C@@H](C)CC(=O)Nc1cc2c(Nc3ccc(OCc4ccccn4)c(Cl)c3)ncnc2cc1OC` [Example 212, (3S)-3-acryloylamino-N-{4-[3-chloro-4-(pyridin-2-ylmethoxy)-phenylamino]-7-methoxy-quinazolin-6-yl}-butyramide], the IC50 in the test on SK-Br3 (ATCC: HTB-30) (Homo sapiens, SK-BR-3, 72 h) turned out to be 0.009 µM; in the test with A431 (ATCC: CRL-1555) (Homo sapiens, A-431, 72 h) it was 0.098 µM.

For `C=CC(=O)N1CCC[C@H]1C(=O)Nc1cc2c(Nc3ccc(OCc4ccccn4)c(Cl)c3)ncnc2cc1OCCOC` [Example 213, (2S)-1-acryloyl-pyrrolidine-2-carboxylic acid {4-[3-chloro-4-(pyridin-2-ylmethoxy)-phenylamino]-7-(2-methoxyethoxy)-quinazolin-6-yl}-amide], the IC50 in the test on SK-Br3 (ATCC: HTB-30) (Homo sapiens, SK-BR-3, 72 h) worked out at 0.004 µM; in the test with A431 (ATCC: CRL-1555) (Homo sapiens, A-431, 72 h), 0.034 µM.

Regarding `C=CC(=O)N[C@@H](C)C(=O)Nc1cc2c(Nc3ccc(OCc4cccc(F)c4)c(Cl)c3)ncnc2cc1OCCOC` [Example 214, (1S)—N-(1-{4-[3-chloro-4-(3-fluoro-benzyloxy)-phenylamino]-7-(2-methoxyethoxy)-quinazolin-6-ylcarbamoyl}-ethyl)-acrylamide], the IC50 with SK-Br3 (ATCC: HTB-30) (Homo sapiens, SK-BR-3, 72 h) is 0.006 µM; with A431 (ATCC: CRL-1555) (Homo sapiens, A-431, 72 h) it was 0.022 µM.

Turning to `C=CC(=O)N1CCC[C@H]1C(=O)Nc1cc2c(Nc3ccc(OCc4cccc(F)c4)c(Cl)c3)ncnc2cc1OCCOC` [Example 215, (2S)-1-acryloyl-pyrrolidine-2-carboxylic acid {4-[3-chloro-4-(3-fluoro-benzyloxy)-phenylamino]-7-(2-methoxyethoxy)-quinazolin-6-yl}-amide], the IC50 in the test with SK-Br3 (ATCC: HTB-30) (Homo sapiens, SK-BR-3, 72 h) amounted to 0.011 µM; with A431 (ATCC: CRL-1555) (Homo sapiens, A-431, 72 h), 0.059 µM.

Turning to `C=CC(=O)N[C@@H](C)C(=O)Nc1cc2c(Nc3ccc(OCc4ccccn4)c(Cl)c3)ncnc2cc1OCCCOC` [Example 220, (1S)—N-(1-{4-[3-chloro-4-(pyridin-2-ylmethoxy)-phenylamino]-7-(3-methoxypropoxy)-quinazolin-6-ylcarbamoyl}-ethyl)-acrylamide], the concentration for half-maximal inhibition (IC50) in the test with SK-Br3 (ATCC: HTB-30) (Homo sapiens, SK-BR-3, 72 h) stood at 0.021 µM; with A431 (ATCC: CRL-1555) (Homo sapiens, A-431, 72 h), 0.022 µM.

As to `C=CC(=O)N[C@H](C(=O)Nc1ccc2ncnc(Nc3ccc(OCc4ccccn4)c(Cl)c3)c2c1)C(C)C` [Example 224, (2S)-2-acryloylamino-N-{4-[3-chloro-4-(pyridin-2-ylmethoxy)-phenylamino]-quinazolin-6-yl}-3-methyl-butyramide], the IC50 in the test with SK-Br3 (ATCC: HTB-30) (Homo sapiens, SK-BR-3, 72 h) was 0.012 µM; in the test with A431 (ATCC: CRL-1555) (Homo sapiens, A-431, 72 h) it was 0.049 µM.

In the case of `C=CC(=O)N[C@@H](CC(C)C)C(=O)Nc1ccc2ncnc(Nc3ccc(OCc4ccccn4)c(Cl)c3)c2c1` [Example 225, (2S)-2-acryloylamino-4-methyl-pentanoic acid {4-[3-chloro-4-(pyridin-2-ylmethoxy)-phenylamino]-quinazolin-6-yl}-amide], the IC50 in the test on SK-Br3 (ATCC: HTB-30) (Homo sapiens, SK-BR-3, 72 h) is 0.021 µM; in the test with A431 (ATCC: CRL-1555) (Homo sapiens, A-431, 72 h), 0.042 µM.

“(2S)-2-acryloylamino-N-{4-[3-chloro-4-(3-fluoro-benzyloxy)-phenylamino]-7-(2-methoxyethoxy)-quinazolin-6-yl}-4-methylsulfanyl-butyramide [Example 222]”: the results for the IC50 in the test on SK-Br3 (ATCC: HTB-30) (setting [2]) and in the test on A431 (ATCC: CRL-1555) (setting [3]) were 0.009 µM and 0.025 µM, respectively.

Take “(2S)-2-acryloylamino-N-{4-[3-chloro-4-(3-fluoro-benzyloxy)-phenylamino]-7-methoxy-quinazolin-6-yl}-4-methanesulfinyl-butyramide [Example 223]”: the figures for the IC50 with SK-Br3 (ATCC: HTB-30) (setting [2]) and in the test with A431 (ATCC: CRL-1555) (setting [3]) were 0.032 µM and 0.054 µM, respectively.

In the case of “(2S)-2-acryloylamino-N-{4-[3-chloro-4-(3-fluoro-benzyloxy)-phenylamino]-7-methoxy-quinazolin-6-yl}-4-methylsulfanyl-butyramide [Example 221]”, the results for the IC50 in the test on SK-Br3 (ATCC: HTB-30) (setting [2]) and with A431 (ATCC: CRL-1555) (setting [3]) were 0.023 µM and 0.028 µM, respectively.
